# Measurements as given in patent US10959981B2, “Composition for preventing or treating climacteric symptoms comprising soybean extract comprising coumestrol as an active ingredient” (AMOREPACIFIC CORPORATION, priority 2014, dated 2021).
# Legend:
# MMP-1 = MMP-1 expression in UV-irradiated 3D artificial skin; format: cell-based; settings: 20 mJ UV, 0.1 ppm coumestrol or 100 ppm extract, relative to the non-UV-irradiated group as 100, UV-irradiated group 142.4%
# Experimental: (§1) It is known that the skin in the climacteric period is vulnerable to skin irritation such as UV because of decreased skin thickness. 3D artificial skin was prepared and the effect of the germinated and fermented bean extract on the skin was tested after UV irradiation.
# (§2) A matrix was prepared by mixing 2.64×10^5 fibroblasts in a collagen solution. After seeding 5×10^6 keratinocytes thereon, differentiation into artificial skin was induced by treating with 1.2 mM calcium. 2 weeks later, after irradiating 20 mJ UV on the cells and treating with 0.1 ppm coumestrol or 100 ppm germinated and fermented bean extract, the culture medium was recovered and the expression levels of MMP-1 and procollagen were measured in the same manner as in Test Example 5. The result is given in Table 2 relative to the non-UV-irradiated group as 100.
# [1] = tested on: climacteric mouse models induced by oophorectomy; assay: Body weight change of oophorectomy-induced climacteric mice over 14 weeks; format: in vivo; settings: oophorectomized hairless mice; feed for 14 weeks; extract 500 mg/kg, coumestrol 0.5 mg/kg; FIG. 1
# Experimental: Female hairless mice weighing 26-27 g were used as experimental animals. The experimental animals were bred under a condition of 23±1° C., 40-60% humidity and 12-hour light/dark cycles. Basic feed and drinking water were provided ad libitum. On the previous day before blood taking, drinking water was provided only. Oophorectomy was conducted aseptically after anesthetizing 15-week-old hairless mice and disinfecting with 70% ethanol. After incising skin tissue about 2-3 cm along the spinal cord below one lateral dorsal part, the muscle and peritoneum at the part where an ovary is located were incised by 1.5 cm to expose the ovary. After removing the ovary, the peritoneum, muscle and skin were sutured using silk suture. The ovary at the opposite side was also removed by the same method. For a control group, a sham operation of incising the muscle and peritoneum but suturing without removal of the ovary was conducted. After the surgical operation, the mice were allowed to recover for a week. […] The administration dosage for the coumestrol administration group was determined such that the amount of coumestrol in the germinated and fermented bean was the same as that of the coumestrol 0.5 mg/kg administration group (content of coumestrol in the germinated and fermented bean extract=0.1%; 500 mg/kg×0.1%=0.5 mg/kg). […]
# [2] = tested on: climacteric mouse models induced by oophorectomy; assay: Bone density by dual-energy X-ray absorptiometry in oophorectomized mice; format: in vivo; settings: oophorectomized hairless mice, 30 weeks old; feed for 14 weeks; extract 500 mg/kg, coumestrol 0.5 mg/kg; control group 0.1975, oophorectomy group 0.1821
# Experimental: (§3) Female hairless mice weighing 26-27 g were used as experimental animals. The experimental animals were bred under a condition of 23±1° C., 40-60% humidity and 12-hour light/dark cycles. Basic feed and drinking water were provided ad libitum. On the previous day before blood taking, drinking water was provided only.
# (§4) Oophorectomy was conducted aseptically after anesthetizing 15-week-old hairless mice and disinfecting with 70% ethanol. After incising skin tissue about 2-3 cm along the spinal cord below one lateral dorsal part, the muscle and peritoneum at the part where an ovary is located were incised by 1.5 cm to expose the ovary. After removing the ovary, the peritoneum, muscle and skin were sutured using silk suture. The ovary at the opposite side was also removed by the same method. For a control group, a sham operation of incising the muscle and peritoneum but suturing without removal of the ovary was conducted. […]
# (§5) The experimental animals were divided into the control group (sham operation group) and an oophorectomy group. […] The administration dosage for the coumestrol administration group was determined such that the amount of coumestrol in the germinated and fermented bean was the same as that of the coumestrol 0.5 mg/kg administration group (content of coumestrol in the germinated and fermented bean extract=0.1%; 500 mg/kg×0.1%=0.5 mg/kg). […]
# [3] = tested on: climacteric mouse models induced by oophorectomy; assay: Skin thickness measured with calipers in oophorectomized mice; format: in vivo; settings: oophorectomized hairless mice, 30 weeks old; extract 500 mg/kg, coumestrol 0.5 mg/kg in feed for 14 weeks; FIG. 2
# Experimental: as §3
# as §4, with “method.” for “method. For a control group, a sham operation of incising the muscle and peritoneum but suturing without removal of the ovary was conducted.”
# as §5
# Skin thickness was measured for the same test group (30 weeks old) as that in Test Example 1 using calipers (HEPT, Cjina).
# procollagen = assay: Procollagen expression in UV-irradiated 3D artificial skin; format: cell-based; settings: 20 mJ UV, 0.1 ppm coumestrol or 100 ppm extract, relative to the non-UV-irradiated group as 100, UV-irradiated group 68.7%
# Experimental: as §1, §2
compound,measurement,setting,value
O=c1oc2cc(O)ccc2c2oc3cc(O)ccc3c12 [coumestrol],MMP-1,MMP-1,122.8%
same,weight gain,[1],significantly less than that of the oophorectomy group
same,Bone density,[2],0.1902 g/cm^2
same,skin thickness,[3],the same as that of the oophorectomy group
same,Procollagen,procollagen,82.4%
